# Source: patent US20050259249A1, “Nonlinear optical detection of fast cellular electrical activity” (priority 2004, published 2005)
# Entries after “also recorded” stand apart in the source; their conditions may differ. Where a name gives a salt, the structure may show the parent alone.
# Tests used:
# mossy fibers = assay: Pharmacology: SHG from mossy fibers of acute hippocampal slices after cytoskeleton-depolymerizing drugs; format: cell-based, rat; conditions: for Effect on SHG from mossy fibers compared to the control: cytochalasin D 1 μM or nocodazole 25 μM, solvent control
# From the text: SHG and TPF microscopy were simultaneously performed on either a Bio-Rad MRC 1024 or Radiance scan head on a modified inverted Olympus IX-70 microscope (FIG. 1). The excitation source was a mode-locked Ti:Sapphire laser (˜100 fs pulses at 80 MHz) (Spectra-Physics) pumped by a 5 W solid state Millennia laser (Spectra-Physics). The laser polarization was controlled via a Berek polarization compensator (New Focus, San Jose, Calif.) and the beam focused into the sample with one of the following (overfilled back aperture) objectives: Zeiss C-Apochromat 10×/0.45 NA, Olympus UApo 20×/0.7 NA, Zeiss Fluar 20×/0.75 NA, Olympus UApo 40×/1.15 NA, Zeiss Fluar 40×/1.3 NA. The resultant SHG was collected in the transmitted (forward) direction with an Olympus XLUMPlanFl 20×/0.95 NA objective, while the TPF was epi-collected through the excitation objective. A combination of dichroic mirrors, band-pass and blue-glass filters (Chroma Technology, Brattleboro, Vt.) and polarization analyzers (Newport) separated the signals for detection with Bialkali photo-multiplier tubes (PMTs) (Hammamatsu). The excitation wavelength, average excitation intensity (<I>) at the sample, and two-photon 1/e radial Gaussian beam waist approximation (w) (Richards et al., Proc Royal Soc London Series A-Mathematical Physical Sciences 253:358-379 (1959), which is hereby incorporated by reference in its entirety) are given with the figures. The average power at the sample is (<I>·π·w^2). The images are temporally summed over several scans at dwell times ˜10-100 μs/μm^2. Confocal imaging was performed on the same microscope, but using an argon-krypton laser for excitation. […]
# The slices were transferred from the static incubation bath to a static ASCF bath on the microscope stage. […] The average intensities from the three groups were calculated and compared for statistical significance with a T-test.
# cultured Aplysia neurons = assay: SHG line scan recording of Vm in dye-stained cultured Aplysia neurons under voltage clamp; format: cell-based, Aplysia californica; conditions: 8 μM dye extracellular perfusion, 940 nm excitation, two-electrode voltage clamp
# Procedure: Abdominal and cerebral ganglia from up to 15 different 5-10 g Aplysia californica were dissociated and cultured with like ganglia (i.e., abdominal with abdominal, cerebral with cerebral) according to Banker and Goslin (i.e., Banker et al., Culturing Nerve Cells, 2nd Edition, Cambridge, Mass.: MIT Press (1998), which is hereby incorporated by reference in its entirety). The cultures were grown in MatTek glass bottom dishes (MatTek Corp., Ashland, Mass.) at 17-18 C. For recordings, 4 to 14 day old cultures were used.
# For staining and imaging, 4-[[4-(dihexylamino)phenyl]]ethynyl]-1-(4-sulfobutyl)pyridinium, inner salt (“DHPESBP”) (“Molecule B” from Moreaux et al., “Electro-Optic Response of Second-Harmonic Generation Membrane Potential Sensors,” Optics Letters 28:625-627 (2003), which is hereby incorporated by reference in its entirety) was used, because of its proven fast (<150 μs) response to Vm. SHG from giant unilamellar vesicles stained with this molecule was sensitive to Vm on fast time scales through an electrochromic (rather than reorientational) mechanism (Moreaux et al., “Electro-Optic Response of Second-Harmonic Generation Membrane Potential Sensors,” Optics Letters 28:625-627 (2003), which is hereby incorporated by reference in its entirety). […]
# [1] = electrochromic mechanism; from Moreaux et al., Optics Letters 28:625-627 (2003); cited from earlier work
# [2] = test system: neurons in the hippocampal region; assay: SHG line scan recording of membrane potential in dye-filled neurons of acute brain slices; format: cell-based, rat; conditions: neurons filled with dye via patch pipette, ~1060 nm/~300 fs laser pulses, voltage steps at the soma
# From the text: SHG microscopy is emerging as a powerful new method to optically record membrane potential changes of active neurons. […] This technique has been applied to acute rat brain slices by patch clamping and filling neurons in the hippocampal region with the dye FM4-64. […] The SHG signal emanates from the plasma membrane with little background from intra- or extracellular regions. […] Additionally, it has been shown that a backward propagating SHG signal exists (Forward/Backward ratio ˜6).
# Repeated line scanning of the SHG signal was used to optically record action potentials (signal to noise ratio (S/N) ˜5-8 by temporal averaging of ˜50 line scans) on somatic membranes. Voltage steps were applied at the soma and the SHG response was recorded in the dendritic arbor >100 μm deep in slice. Dendritic spines were clearly visible, possibly making the recording of membrane potential transients from these compartments feasible. […] The line scan averaging necessary to increase S/N was accomplished in minutes. […] In addition to patch clamping, it was shown that extracellular micropipette pressure injection of the dye into hippocampal cell layers leads to SHG labeling of many tens of neurons.
smiles,measurement,setting,value
"COC(=O)Nc1nc2ccc(C(=O)c3cccs3)cc2[nH]1 [nocodazole, Nocodazole]","SHG from the mossy fibers after addition of the drug, relative to its original value","mossy fibers; continuous treatment, nocodazole 25 μM, imaged for 70 min, 34° C., 4 slices",~39%
same,Effect on SHG from mossy fibers compared to the control,mossy fibers,drastic
"CCCCCCN(CCCCCC)c1ccc(C#Cc2cc[n+](CCCCS(=O)(=O)[O-])cc2)cc1 [DHPESBP, 4-[[4-(dihexylamino)phenyl]ethynyl]-1-(4-sulfobutyl)pyridinium, inner salt]",SHG signal change as a function of change in membrane potential (linear response),cultured Aplysia neurons,~6 %/100 mV
same,Response time of SHG to Vm,[1],< 150 μs
C=C1[C@@H](C)[C@H]2[C@H](Cc3ccccc3)NC(=O)[C@]23[C@H](OC(C)=O)/C=C/[C@@](C)(O)C(=O)[C@@H](C)C/C=C/[C@H]3[C@@H]1O [Cytochalasin D],Effect on SHG from mossy fibers compared to the control,mossy fibers,did not affect the SHG; also recorded: no significant effect
"CCN(CC)c1ccc(C=CC=CC=Cc2cc[n+](CCC[N+](CC)(CC)CC)cc2)cc1.[Br-].[Br-] [FM4-64, N-(3-triethylammoniumpropyl)-4-(6-(4-(diethylamino)phenyl)hexatrienyl)pyridinium dibromide]",SHG signal linear response to membrane potential,[2],~7.7 %/100 mV
